From a melting point compilation (Tetko et al.; mined from patent text by program, amines drawn as free bases though some values may be those of a salt)

| Compound | melting point [°C] |
| --- | --- |
| C=C(c1cn(-c2c(Cl)cc(C(F)(F)F)cc2Cl)nc1C#N)C(F)(F)Cl | 113 to 114 |
| Nc1nc2c(ncn2[C@H]2C=C[C@@H](O)CC2)c(=O)[nH]1 (racemic) | > 300 |
| OCc1sc(Cl)nc1C(F)(F)F | 39 to 45 |
| N#C/C=C1\CCc2cc(Br)c3c(c21)CCO3 | 200 to 203 |
| OCc1ccc(-c2ccc3nnn(Cc4ccc5ncccc5c4)c3n2)cc1F | 202 to 204 |
| O=C(Nc1ccc2ccc(Oc3ccccc3)nc2n1)c1ccoc1 | 102 |
| Cc1cc(C(F)(C(F)(F)F)C(F)(F)F)cc(C)c1NC(=O)c1cc(F)c(C#N)c(NC(=O)c2ccccc2)c1F | 245 to 248 |
| Nc1n[nH]c2cc(C(F)(F)F)ccc12 | 168 to 169 |
| N#CC(C#N)(CCCSC(F)(F)F)CC(F)(F)C(F)(F)C(F)(F)C(F)(F)C(F)(F)F | 88 to 90 |
| N#Cc1sc2ncccc2c1Cl | 144 to 145 |
| Cc1n[nH]c(-c2cc(Cl)ccc2N)n1 | 190 to 195 |
| CCCn1nc2c(N)nc3ccccc3c2c1NCc1ccccc1 | 160 to 161 |
| COP(=O)(OC)C(c1ccc(F)cc1)(c1ccccc1F)c1ccccc1Cl (stereo not given) | 132 |
| COc1cccc(N2CCN(C(=O)c3ccccc3C(c3ccc(O)cc3)c3ccc(O)cc3)CC2)c1 | 229 to 234 |
| CCOCn1c(-c2ccc(Cl)cc2)c(C#N)c(Sc2ccc(Cl)c(Cl)c2)c1C(F)(F)F | 75 to 77 |
| c1ccc(Oc2ccc(-c3nc(-c4ccccc4)c(-c4ccccc4)o3)cc2)cc1 | 125 to 126 |
| Cc1nc(C=Cc2nc3ccc(F)cc3c(=O)n2-c2ccccc2C)cs1 | 211 to 212 |
| COc1cc(C(=O)Nc2c(C)cc3cn[nH]c3c2C(=O)NC2(C3CC3)CC2)n(-c2ncccc2Cl)n1 | 150 to 154 |
| Cc1nc2c(C)cccn2c1C1=NNC(=O)CO1 | 310 to 313 |
| CN1CCN(c2cccc3c2CC[C@@H](NC(=O)c2ccc(N4CCOCC4)cc2)C3)CC1 | 127 to 128 |
| CCCCCCCCCCNC(=O)c1cc(C(=O)NCCCCCCCCCC)cc(N(CC(=O)O)CC(=O)O)c1 | 164 to 167 |
| COCNC(=O)C1C(c2ccc(F)cc2)CC2CCC1N2C (stereo not given) | 140 to 142 |
| Oc1ccnc2[nH]cc(-c3ccncn3)c12 | > 210 |
| c1cc2c(ccc3[nH]c4c(c32)CNCC4)s1 | 190 |

| Compound | melting point [°C] |
| --- | --- |
| CCCCc1ccc(C#Cc2ccc(C=O)cc2)cc1 | 76 to 78 |
| Cc1oc(-c2ccccc2)nc1COc1ccc(C=C2SC(=O)NC2=O)cn1 | 225 to 226 |
| COC1NC(=O)C(OC)(OC)C1Cl (stereo not given) | 141 to 142 |
| Fc1ccc(Cn2c(NC3CCN(CCNc4nc5ccccc5n4Cc4ccc(Cl)c(Cl)c4)CC3)nc3ccccc32)cc1 | 113 |
| N#Cc1nn(-c2c(Cl)cc(C(F)(F)F)cc2Cl)cc1C=C(Cl)Cl | 99 to 101 |
| COc1cc(CBr)cc(OC)c1 | 70 to 72 |
| CCc1noc(-c2ncc3[nH]c4ccc(C5CC=CCC5)cc4c3c2C)n1 (stereo not given) | 247 to 248 |
| OCc1csc(Cl)c1Cl | 63 to 65 |
| Clc1nccnc1SN=Cc1ccccc1 | 93 to 94 |
| CC(=O)c1nn(-c2c(Cl)cc(C(F)(F)F)cc2Cl)c(N)c1S(C)=O (stereo not given) | 166 |
| Nc1cc([N+](=O)[O-])ccc1Nc1cccc(-c2nccs2)c1 | 146 to 159 |
| CC(=O)NCc1ccc(Oc2ccccc2C(=O)CN2CCN(c3ccncc3)CC2)cc1 | 150 to 151 |
| N#Cc1ccc(C(O)Cc2ccc(C#N)cc2[N+](=O)[O-])cc1 (stereo not given) | 147 to 153 |
| Cc1cc2n(c1)CN(CCCO)c1ccccc1-2 | 77 to 78 |
| OC(c1ccc(F)cc1)(c1ccc(F)cc1)C1CCN(CCCOc2ccc(Cl)cc2)CC1 | 92 to 93 |
| CCCOC(C)c1ccc(-c2ccc(OCc3ccccc3)cc2)cc1 (single isomer, unassigned; (+)) | 106 to 108 |
| O=C(NC1CC=CC1)OCc1ccccc1 | 56 to 57 |
| c1csc(Cn2ccnc2C2=NCCN2)c1 | 101 to 103 |
| CNCc1nnc2n1-c1ccc(Cl)cc1C(c1ccccc1)=NC2 | 152 to 156 |
| OCc1coc(-c2cccs2)n1 | 98 to 99 |
| Cc1cccc(C2CCCCS2=O)n1 (stereo not given) | 100 |
| BrCCCCCCCCCCCCCCCCCCCCBr | 62 |
| Cc1cccc2nc(C(S)c3ncnc4[nH]cnc34)n(-c3ccccc3Cl)c(=O)c12 (stereo not given) | 228 to 230 |

Second part, the compound after the results:

| melting point [°C] | Compound |
| --- | --- |
| 108 | CCCCCCCNC(=O)N(C)c1cccc(-c2ccc(CCC(=O)O)cc2)n1 |
| 62 | CCOC(=O)CC(=CNc1ncccc1C)C(=O)OCC |
| 186 to 187 | N#Cc1ccc(NS(=O)(=O)c2ccc([N+](=O)[O-])cc2[N+](=O)[O-])cc1 |
| 139 to 142 | CC(C)(C)[Si](C)(C)Oc1ccccc1-c1cc(-c2cccc([N+](=O)[O-])c2)c(C#N)c(NC(=O)c2ccsc2)n1 |
| 88 to 91 | C[C@@H]1Cc2ccsc2[C@H](C)N1CCNC(=O)c1ccc(C(F)(F)F)cc1 (relative stereo) |
| 234 to 235 | Cc1cc(C)c2nc(C(=O)O)cc(-c3ccccc3Cl)c2c1 |
| 110 to 112 | CCCCCCNc1ccccc1CC(=O)Nc1c(C(C)C)cccc1C(C)C |
| 129 to 133 | CCOC(=O)C(C#N)=CNNCC(=Cc1ccccc1)c1ccccc1 |
| 133 to 135 | Cn1c(CO)nc2ccc(OCc3ccccc3)nc21 |
| 224 to 227 | N#Cc1ccnc(OCc2nc3cc(Cl)ccc3s2)c1 |
| 130 to 132 | CNc1nc(-c2cccc(NC(=O)c3ccc(OC)c(Cl)c3)c2)c2cc(OC)c(OC)cc2n1 |
| 76 to 77 | CC(=O)N1CCOc2c(C(=O)O)cc(Cl)cc21 |
| 150 | CCCCc1noc(-c2ccccc2)c1-c1ccc(S(N)(=O)=O)cc1 |
| 169 to 171 | COCCc1nc2c(N)nc3ccccc3c2n1CC1(O)CCC1 |
| 218 | CCOc1ccc2c(c1)n(C1CCCCC1)c(=O)n2S(=O)(=O)c1ccc(C(=O)NC(C)(C)CO)cc1OC |
| 108 to 110 | COCCN(C)S(=O)(=O)c1cc(-n2c(=O)cc(C(F)(F)F)n(C)c2=O)ccc1Cl |
| 160 | CC(C)=CCN1Cc2c(Cl)ccc3[nH]c(=S)n(c23)C[C@@H]1C |
| 152 to 154 | CCC(CC)(CC)NC(=S)Nc1cc(Cl)cc(Cl)c1 |
| 246 to 248 | COc1ccc(-c2csc(Nc3ccc(C)cn3)n2)cc1 |
| 210 to 212 | COc1cc(Cc2cnc(N)nc2N)ccc1N |
| 250 to 254 | CCNc1c([N+](=O)[O-])cc2c(=O)c(C(=O)O)cn(-c3cc(N)c(F)cc3F)c2c1C |
| 153 to 154 | CS(=O)(=O)OCCCC1Oc2cc3c(cc2NC1=O)CCCC3 (stereo not given) |
| 206 to 208 | O=C(Nc1cc2ncc(CN3CCCC3)cc2cc1F)c1ccc(-c2ccccc2)cc1 |
| 133 to 134 | COc1ccc2c(c1)C1(CC#N)CCC(=O)C=C1CC2 (stereo not given) |
| 98 to 99 | CC(C)(C)OC(=O)NCCCCC(=O)N1CCC(c2[nH]nc3c2C(=O)c2c(NC(=O)NN4CCOCC4)cccc2-3)CC1 |
| 94 to 95 | COc1cc(CCCn2ccnc2)ccc1OCc1coc(-c2cccs2)n1 |
| 132 to 134 | CCCCc1nc2c(N)nc3cccnc3c2n1CCCC(C)=NOC |

| melting point [°C] | Compound |
| --- | --- |
| 211 to 213 | CCCCN(CCCC)c1ccc(C=CC2=C(C#N)C(=C(C#N)C#N)OC2(C)C(F)(F)F)c(OC)c1 (stereo not given) |
| 83 to 85 | COC(=O)c1nccnc1Oc1ccccc1C(F)(F)F |
| 166 to 168 | COc1cccc2c3c(c(=O)[nH]c12)CCN3c1ccccc1C |
| 136 | COc1cc(-c2ccc(NCc3ccccc3)nn2)ccc1OC(F)F |
| 283 | O=C1Nc2ccc(I)cc2C1=NNC(=O)c1cccc(Oc2ccccc2)c1 |
| 101 to 102 | CS(=O)(=O)OCCNc1cc(Cl)ccc1[N+](=O)[O-] |
| 224 to 226 | CC(=O)Nc1ccccc1NS(=O)(=O)c1cc(C(=O)O)cc([N+](=O)[O-])c1Oc1ccccc1 |
| 173 to 174 | Cc1nc(N2CCN(Cc3ccc(F)cc3)C2=O)sc1C(=O)NCc1ccc(C(F)F)o1 |
| 177 to 179 | CCCCNC(=O)C(Cc1ccccc1)NC(=O)Nc1n[nH]c(=S)s1 (stereo not given) |
| 276 to 279 | COc1ccc(C(=O)NC(=O)Nc2cccc3c2CC(=O)N3)cc1 |
| 228 to 231 | COc1cc(OC)nc(C2(O)OC(=O)c3c(-c4ccc(Cl)cc4)ccnc32)n1 (stereo not given) |
| 128 | CC(=O)OC1CSC(Oc2cnc(Cl)c(Cl)c2)C(OC(C)=O)C1OC(C)=O (stereo not given) |
| 65 to 66 | C=CCOc1cc(C(=O)CCCCCCCCCCCCC)c(O)c(C)c1C |
| 127 to 129 | COC(=O)c1nc(-c2ccc([Si](C)(C)C)cc2F)c(F)c(N)c1OC |
| 82 to 83 | CCc1cc2c(cc1Sc1ccc(C(=O)O)cc1)C(C)(C)CCC2(C)C |
| 262 to 264 | CC12CCC(C1)C1(C)Oc3ccc(C(=O)c4ccc(C(=O)O)cc4)cc3C21C (stereo not given) |
| 137 to 138 | O=CNc1ccc2c(c1)C(=O)CCC2 |
| 303 | COc1cc2[nH]nc(S(C)=O)c(=O)c2cc1OC (stereo not given) |
| 146 to 147 | COc1cc(C(=O)N2CCN(C(=O)OC(C)(C)C)C(C(=O)N(C)C)C2)cc(OC)c1OC (stereo not given) |
| 202 to 203 | COC(=O)c1nn(Cc2ccccc2)c2c1CCc1cc(OCc3cncnc3)ccc1-2 |
| 127 to 128 | CCOC(=O)c1c(C)cc(OCc2cccc(OCc3ccc4ccccc4n3)c2)cc1O |
| 104 | CCC(C)(C)NC(=O)c1ccc(S(=O)(=O)Cl)c(OC)c1 |
| 216 to 219 | CC(C)(C)c1cc(C(=O)c2cc[nH]n2)cc(C(C)(C)C)c1O |
| 168 to 170 | COCc1c(C(=O)OC)c2cc(O)ccc2n1C |
| 190 to 191 | COC(=O)C1=C(C)Nc2ccccc2SC1c1cccc(Cl)c1Cl (stereo not given) |
| 50 to 51 | CCOC(=O)c1cnn(-c2ccccn2)c1Cl |
